Tested on: sows
Settings: phosphoric acid 0.01 mol/liter (1 g/L), 25 sows, control 1.6 (24 sows)
Experimental: A calcium binder (phosphoric acid, PhA)) was added in a concentration of 0.01 mol/liter (corresponding to 1 g/L of phosphoric acid). The diets fed to the sows were the same.

O=P(O)(O)O [PhA, phosphoric acid]
Stillborn piglets, #: 1.1

From patent publication US20210283176A1, “CALCIUM BINDER FOR USE IN PREVENTING STILLBIRTH” (Nutreco IP Assets B.V, priority 2017, published 2021)
